We go through seven compounds from patent US4315026A, “Alkylpolyoxysulfinyl and alkylpolythiosulfinyl derivatives of carbamate esters” (priority 1980, dated 1982).

What all share (format): in vivo
For data set [1], the system named is Swiss white mice. Description: Mammalian toxicity, oral, Swiss white mice (LD50). The note with it: propylene glycol carrier. On the procedure:
(§1) For mice toxicity, the compound was dissolved in propyleneglycol or corn oil as a carrier and all compounds were tested at the level up to 1,000 mg/kg. All of the above noted compounds tested were lower in toxicity as compared with the parent compounds.
(§2) Mammalian toxicity was determined against Swiss white mice.

The nature of data set [2]: Mammalian toxicity, oral, Swiss white mice (LD50). The note with it: mouse, in vivo, propylene glycol carrier. The procedure:
as §1, §2

Data set [3] has as its system house flies, Musca domestica. In words: whole plant or invertebrate. The note with it: read-out: House flies LD50.
Procedure: In another series of tests, stock 1% concentrated solutions of each of the test compounds of Table I below, and of the commercial related carbamate ester insecticides methomyl, carbofuran and oxamyl, were made in acetone, and such solutions were diluted with acetone to a concentration of 0.001-0.8%. House flies were treated topically on the notum by 1 μl of each of the diluted acetone solutions and percent mortality was counted 24 hours after application.
Setting [4] is: topical on the notum, 1 μl of 0.001-0.8% acetone solutions, 24 hours, 60° F.

Where two headings read alike, the source gives them in different places.

For “3-Methylphenyl N-(2-phenyl-1,3-dioxane-5-ylmethoxysulfinyl)-N-methylcarbamate [XVIII]”, in data set [1], the “Mice LD50” value was > 1,000 mg/kg.

One may read the LD50 as the dose at which mortality reaches 50%. On to `CSC(=NOC(=O)N(C)S(=O)OC1COC(c2ccccc2)OC1)C(=O)N(C)C` (stereo not shown) [XXVII, S-Methyl N-(2-phenyl-1,3-dioxane-5-ylmethoxysulfinyl)-N-methylcarbamoyloxy-2-(N',N'-dimethylamino)-2-oxoethanimidothioate], for which the LD50 in data set [2] was found to be 25 mg/kg; in data set [3] (setting [4]), 161 mg/kg.

For the compound `CSC(=NOC(=O)N(C)S(=O)OCC1COC(C)(C)O1)C(=O)N(C)C` (stereo not shown) [XXVIII, S-Methyl N-(2,2-dimethyl-1,3-dioxolane-5-ylmethoxysulfinyl)-N-methylcarbamoyloxy-2-(N'N'-dimethylamino)-2-oxoethanimidothioate], the LD50 in data set [2] amounted to 31 mg/kg; in data set [3] (setting [4]) it was 2.6 mg/kg.

For the compound `CSC(=NOC(=O)N(C)S(=O)OCC12OCC3OC(C)(C)OC3C1OC(C)(C)O2)C(=O)N(C)C` (stereo not drawn) [XXXIV, S-Methyl N-(2,3,4,5-Di-O-isopropylidene-1-α-O-fructopyranosylsulfinyl)-N-methylcarbamoyloxy-2-(N',N'-dimethylamino)-2-oxoethanimidothioate], the LD50 in data set [2] stood at 44 mg/kg; in data set [3] (setting [4]) it was 20 mg/kg.

Take `CSC(=NOC(=O)N(C)S(=O)OC1C(C2COC(C)(C)O2)OC2OC(C)(C)OC21)C(=O)N(C)C` (stereo not shown) [XXXV, S-Methyl N-(1,2,5,6-di-O-isopropylidene-3-O-glucofuranosylsulfinyl) N-methylcarbamoyloxy-2-(N',N'-dimethylamino)-2-oxoethanimidothioate]: the LD50 is 25 to 50 mg/kg in data set [2] and 26.5 mg/kg in data set [3] (setting [4]).

Regarding `CNC(=O)Oc1cccc2c1OC(C)(C)C2` [carbofuran, reference compound], the LD50 in data set [2] worked out at 2 mg/kg; in data set [3] (topical, 24 h), 6.7 mg/kg.

For `CNC(=O)ON=C(SC)C(=O)N(C)C` [oxamyl, reference compound], the LD50 in data set [2] is 3.7 mg/kg; in data set [3] (setting [4]), 3.6 mg/kg.
